# Laboratory results from the supplement of paper PMC10307832.
# Key:
# Test in all cases: relative viability (nuclei count vs DMSO), 5 days (fraction); higher = more cells survive
# [1] = compound: C=CCNC1=C2C[C@@H](C)C[C@H](OC)[C@H](O)[C@@H](C)/C=C(\C)[C@H](OC(N)=O)[C@@H](OC)/C=C\C=C(/C)C(=O)NC(=CC1=O)C2=O [17-AAG] + CCNC(=O)c1noc(-c2cc(C(C)C)c(O)cc2O)c1-c1ccc(CN2CCOCC2)cc1 [Luminespib] (partner 0.01 µM)
# Outline: (§1)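 Dosing by pin tool came one day after lung cancer cell lines were seeded in 1536-well plates, using either one drug or a fixed anchor-drug dose plus five library-drug doses (not always all listed) in √10 steps. After 5 days, nuclei were counted on 4× images. Relative viability is treated-well nuclei count divided by vehicle-well nuclei count, and values are medians of duplicate plates.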
# [2] = compound: C=CCNC1=C2C[C@@H](C)C[C@H](OC)[C@H](O)[C@@H](C)/C=C(\C)[C@H](OC(N)=O)[C@@H](OC)/C=C\C=C(/C)C(=O)NC(=CC1=O)C2=O [17-AAG] + COc1cccc2cc(-c3nc([C@H]4CC[C@H](C(=O)O)CC4)n4ncnc(N)c34)[nH]c12 [OSI-027] (partner 0.5 µM)
# Outline: as §1
# [3] = compound: C=CCNC1=C2C[C@@H](C)C[C@H](OC)[C@H](O)[C@@H](C)/C=C(\C)[C@H](OC(N)=O)[C@@H](OC)/C=C\C=C(/C)C(=O)NC(=CC1=O)C2=O [17-AAG] + CS(=O)(=O)CCNCc1ccc(-c2ccc3ncnc(Nc4ccc(OCc5cccc(F)c5)c(Cl)c4)c3c2)o1 [Lapatinib] (partner 2 µM)
# Outline: as §1
# [4] = compound: C=CCNC1=C2C[C@@H](C)C[C@H](OC)[C@H](O)[C@@H](C)/C=C(\C)[C@H](OC(N)=O)[C@@H](OC)/C=C\C=C(/C)C(=O)NC(=CC1=O)C2=O [17-AAG] + C[C@]1(O)C[C@@H](c2nc(-c3ccc4ccc(-c5ccccc5)nc4c3)c3c(N)nccn32)C1 [Linsitinib] (partner 1 µM)
# Outline: as §1
Cell Line,relative viability ([1]; first compound 0.00128 µM),relative viability ([1]; first compound 0.004048 µM),relative viability ([1]; first compound 0.0128 µM),relative viability ([1]; first compound 0.04048 µM),relative viability ([1]; first compound 0.128 µM),relative viability ([2]; first compound 0.00128 µM),relative viability ([2]; first compound 0.004048 µM),relative viability ([2]; first compound 0.0128 µM),relative viability ([2]; first compound 0.04048 µM),relative viability ([2]; first compound 0.128 µM),relative viability ([3]; first compound 0.00128 µM),relative viability ([3]; first compound 0.004048 µM),relative viability ([3]; first compound 0.0128 µM),relative viability ([3]; first compound 0.04048 µM),relative viability ([3]; first compound 0.128 µM),relative viability ([4]; first compound 0.00128 µM),relative viability ([4]; first compound 0.004048 µM),relative viability ([4]; first compound 0.0128 µM),relative viability ([4]; first compound 0.04048 µM),relative viability ([4]; first compound 0.128 µM)
H3255,0.716,0.872,0.536,0.203,0.208,0.569,0.576,0.49,0.274,0.268,0.296,0.338,0.275,0.235,0.175,0.953,1.01,0.798,0.201,0.188
EPLC-272H,0.191,0.231,0.201,0.173,0.0978,0.275,0.277,0.247,0.145,0.112,1.04,1.02,0.929,0.425,0.153,1.37,1.12,1.21,0.928,0.324
RERF-LC-KJ,1.06,0.595,0.398,0.357,0.325,0.62,0.637,0.231,0.268,0.22,0.957,0.901,1.04,0.508,0.297,0.857,0.886,0.923,0.881,0.275
NCI-H1793,0.191,0.149,0.136,0.16,0.169,0.252,0.234,0.156,0.124,0.125,0.447,0.434,0.35,0.217,0.156,0.824,0.712,0.51,0.236,0.153
EKVX,0.879,0.857,0.742,0.187,0.13,0.77,0.649,0.746,0.177,0.152,0.223,0.218,0.197,0.0769,0.12,1.12,1.08,0.873,0.252,0.122
ChaGo-K-1,0.577,0.627,0.442,0.199,0.181,0.514,0.71,0.51,0.24,0.16,–,–,–,–,–,–,–,–,–,–
NCI-H23,0.242,0.208,0.19,0.206,0.202,0.623,0.646,0.365,0.179,0.121,0.933,0.882,0.233,0.204,0.131,0.554,0.511,0.486,0.174,0.157
EMC-BAC-2,1.14,1.06,0.565,0.268,0.248,0.464,0.486,0.438,0.3,0.216,0.948,0.948,0.907,0.777,0.16,0.875,0.772,0.837,0.803,0.265
LOU-NH91,0.345,0.239,0.282,0.3,0.291,0.666,0.618,0.443,0.359,0.316,0.852,0.795,0.521,0.328,0.36,0.874,0.678,0.587,0.478,0.311
LU99A,0.239,0.201,0.213,0.169,0.146,0.333,0.332,0.282,0.217,0.141,0.885,0.965,0.323,0.288,0.141,0.484,0.671,0.449,0.24,0.174
NCI-H1395,0.638,0.535,0.329,0.359,0.331,0.634,0.619,0.467,0.377,0.277,0.903,1.12,0.485,0.406,0.417,1.12,1.1,0.705,0.469,0.383
NCI-H520,0.236,0.22,0.227,0.202,0.188,0.305,0.268,0.27,0.202,0.152,0.797,0.654,0.396,0.132,0.112,0.987,0.856,0.728,0.144,0.122
201T,1.06,1.03,0.96,0.913,0.431,0.823,1.01,0.443,0.165,0.165,1,1.04,0.991,0.999,0.512,1.06,1.05,1.01,0.985,0.863
NCI-H1944,0.595,0.603,0.565,0.219,0.151,0.406,0.403,0.321,0.184,0.164,0.795,0.889,0.646,0.482,0.169,1.25,1.22,1.16,0.872,0.319
NCI-H3122,0.099,0.059,0.0637,0.0599,0.096,0.713,0.169,0.126,0.12,0.114,1,0.931,0.542,0.293,0.218,1.02,0.985,0.254,0.207,0.138
NCI-H1703,–,–,–,–,–,–,–,–,–,–,0.998,0.315,0.182,0.176,0.208,0.3,0.687,0.115,0.148,0.0982
NCI-H1755,0.479,0.444,0.364,0.273,0.223,0.773,0.69,0.602,0.197,0.114,1.06,0.972,0.772,0.27,0.165,1.03,1.01,0.934,0.825,0.39

Cell Line,relative viability ([1]; first compound 0.00128 µM),relative viability ([1]; first compound 0.004048 µM),relative viability ([1]; first compound 0.0128 µM),relative viability ([1]; first compound 0.04048 µM),relative viability ([1]; first compound 0.128 µM),relative viability ([2]; first compound 0.00128 µM),relative viability ([2]; first compound 0.004048 µM),relative viability ([2]; first compound 0.0128 µM),relative viability ([2]; first compound 0.04048 µM),relative viability ([2]; first compound 0.128 µM),relative viability ([3]; first compound 0.00128 µM),relative viability ([3]; first compound 0.004048 µM),relative viability ([3]; first compound 0.0128 µM),relative viability ([3]; first compound 0.04048 µM),relative viability ([3]; first compound 0.128 µM),relative viability ([4]; first compound 0.00128 µM),relative viability ([4]; first compound 0.004048 µM),relative viability ([4]; first compound 0.0128 µM),relative viability ([4]; first compound 0.04048 µM),relative viability ([4]; first compound 0.128 µM)
NCI-H2087,0.17,0.158,0.159,0.131,0.0988,0.483,0.325,0.124,0.15,0.0762,0.823,0.808,0.477,0.238,0.135,0.886,0.797,0.344,0.248,0.197
NCI-H2228,0.124,0.102,0.11,0.157,0.107,0.583,0.265,0.104,0.0876,0.0979,1.08,0.109,0.128,0.161,0.168,0.614,0.264,0.171,0.15,0.141
NCI-H838,0.192,0.196,0.151,0.157,0.12,0.408,0.369,0.246,0.147,0.124,1.02,0.878,0.141,0.121,0.0916,0.942,0.97,0.756,0.17,0.142
EBC-1,–,–,–,–,–,–,–,–,–,–,0.217,0.234,0.192,0.2,0.2,0.851,0.579,0.162,0.139,0.12
NCI-H1299,–,–,–,–,–,–,–,–,–,–,0.964,0.904,0.924,0.779,0.416,0.999,0.922,0.919,0.894,0.714
NCI-H2170,0.696,0.502,0.374,0.137,0.151,0.652,0.585,0.385,0.187,0.118,0.281,0.283,0.24,0.234,0.197,–,–,–,–,–
NCI-H1648,–,–,–,–,–,0.274,–,0.345,0.261,0.259,–,–,–,–,–,–,–,–,–,–
LCLC-103H,1.04,0.891,0.98,0.999,0.798,0.484,0.496,0.478,0.515,0.383,–,–,–,–,–,1.15,1.12,1.13,0.965,0.992
NCI-H1650,0.195,0.194,0.228,0.214,0.215,0.483,0.226,0.139,0.189,0.176,0.624,0.303,0.133,0.171,0.175,–,–,–,–,–
SW 900,0.183,0.172,0.19,0.153,0.153,0.476,0.487,0.134,0.0879,0.0977,–,–,–,–,–,–,–,–,–,–
IA-LM,–,–,–,–,–,–,–,–,–,–,1.06,0.736,0.479,0.502,0.0825,0.551,0.667,0.599,0.177,0.102
NCI-H2342,0.695,0.689,0.602,0.402,0.38,0.552,0.716,0.584,0.504,0.425,–,–,–,–,–,–,–,–,–,–
HCC-366,–,–,–,–,–,0.942,0.964,0.117,0.0472,0.037,0.858,0.691,0.0214,0.0204,0.0219,0.52,0.659,0.0425,0.0221,0.0229
NCI-H441,0.278,0.197,0.196,0.181,0.17,0.581,0.429,0.203,0.19,0.137,–,–,–,–,–,0.679,0.661,0.276,0.174,0.0829
NCI-H522,0.902,1.03,0.948,1.02,0.451,0.663,0.685,0.655,0.542,0.552,–,–,–,–,–,–,–,–,–,–
HCC-78,–,–,–,–,–,0.375,0.416,0.405,0.39,0.384,1.12,–,0.994,0.603,0.296,0.626,–,0.608,0.62,0.294
